Experiments:
[1] = cited from earlier work
[2] = Moisture sorption/desorption (dynamic vapour sorption, DVS); assay type: physicochemical; conditions: for Masschange (DVS): from 0%-90% RH; for Hygroscopicity: increase in mass from 0%-RH to 90%-RH
Procedure: Moisture sorption/desorption data was collected on a DVS Advantage, a DVS Adventure, or a DVS Intrinsic (SMS Surface Measurements Systems) moisture balance system. The sorption/desorption isotherms were measured stepwise in a range from 0%-RH to 90%-RH at typically 25° C. A weight change of typically <0.001%/min was chosen as criterion to switch to the next level of relative humidity (with a maximum equilibration time of typically 24 hours, if the weight change criterion was not met). The data were corrected for the initial moisture content of the samples by taking the weight after drying of the samples at 0%-RH as zero point.
The hygroscopicity of a given substance was characterized (by close analogy with the European Pharmacopoeia) by the increase in mass when the relative humidity was raised from 0%-RH to 90%-RH: […]

[3] = High humidity storage experiments; assay type: physicochemical

Masschange (DVS) [2] [%]	Solid form stability in high humidity storage [3]	Solid form change during the DVS cycle ([2]; sorption/desorption cycle 0%-90% RH)	SMILES	brain permeability [1]	Hygroscopicity [2]
–	–	–	CC(C)(C)c1nc(-c2cccc(NS(=O)(=O)c3c(F)cccc3F)c2F)c(-c2ccnc(N)n2)s1 [Dabrafenib]	very poor	–
–	–	–	COC(=O)N[C@@H](C)CNc1nccc(-c2cn(C(C)C)nc2-c2cc(Cl)cc(NS(C)(=O)=O)c2F)n1 [Encorafenib]	very poor	–
–	–	–	CCCS(=O)(=O)Nc1ccc(F)c(C(=O)c2c[nH]c3ncc(-c4ccc(Cl)cc4)cc23)c1F [Vemurafenib]	very poor	–
~3.8	Recrystallization to Form A	–	Cn1cnc2ccc(Oc3c(F)ccc(NS(=O)(=O)N4CC[C@@H](F)C4)c3C#N)cc2c1=O [amorphous form, (3R)-N-[2-cyano-4-fluoro-3-(3-methyl-4-oxo-quinazolin-6-yl)oxy-phenyl]-3-fluoro-pyrrolidine-1-sulfonamide]	–	hygroscopic (weight increase 2.0% ≤ Dm < 15.0%)
< 0.2	–	no solid form change	Cn1cnc2ccc(Oc3c(F)ccc(NS(=O)(=O)N4CC[C@@H](F)C4)c3C#N)cc2c1=O [polymorphic form A, (3R)-N-[2-cyano-4-fluoro-3-(3-methyl-4-oxo-quinazolin-6-yl)oxy-phenyl]-3-fluoro-pyrrolidine-1-sulfonamide]	–	not hygroscopic

— patent US20240199585A1, “SOLID FORMS OF (3R)-N-[2-CYANO-4-FLUORO-3-(3-METHYL-4-OXO-QUINAZOLIN-6-YL)OXY-PHENYL]-3-FLUORO-PYRROLIDINE-1-SULFONAMIDE” (Hoffmann-La Roche Inc., priority 2021, published 2024)
